Holding throughout (assay type): in vivo
One test has as its system Digitaria sanguinalis. In words: Herbicidal action (Example 25). The settings on record: postemergence. The method, then:
(§1) Paraffined paper cups having a volume of 170 cm^3 were filled with a sandy loam, and the seeds of the test plants sown therein, separated by species. (The species are also listed below.)
(§2) In the first group, treatment was effected immediately after sowing and before germination of the seeds (preemergence treatment=soil treatment). Shallow sown seeds not completely covered with soil came into contact with the active ingredients. In the second group, the plants were treated postemergence (=leaf treatment) at a growth height of from 2 to 8 cm, depending on the rate of growth and shape of the species concerned. The compounds were suspended or emulsified in water and applied with the aid of fine nozzles. The soil and plants were thoroughly sprinkler irrigated for the duration of the experiment. The cups were placed in the greenhouse and kept in the temperature range 12°-25° C. or 18°-35° C., depending on the temperature requirements of the various species. After 2 to 6 weeks the action was assessed visually on a 0 to 100 scale, 0 denoting no damage and 100 denoting plants not germinated or completely destroyed.

The next test relates to Eleusine indica. In words: Herbicidal action (Example 25). The settings on record: postemergence. The method, then:
as §1, §2

The subject of another test is Alopecurus myosuroides. In words: Herbicidal action (Example 25). The settings on record: for pest or weed control at 2000 g/ha / pest or weed control at 4000 g/ha / pest or weed control at 8000 g/ha: Alopecurus myosuroides, read-out: percentage damage; for pest or weed control at 2000 g/ha: 2.0 kg/ha; for pest or weed control at 8000 g/ha: 8.0 kg/ha. The method, then: as §1, §2

The subject of the next test is Datura stramonium. In words: Herbicidal action (Example 25). Particulars: postemergence. How it is done:
as §1, §2

A further test deals with Lolium multifl. Description: Growth height of Gramineae (Example 11, Table B). Particulars: 3.0 kg/ha, 0 = no inhibition, 100 = no growth; for inhibition at 3000 g/ha: Lolium, read-out: growth inhibition compared with untreated control. The source says:
(§3) The vessels used for the experiments were plastic pots having a volume of 1,130 cm^3 (Table A) or paraffined paper cups having a volume of 170 cm^3 (Table B). The pots and cups were filled with a sandy loam. The seeds of the test plants-separated by species-were sown shallow. Preemergence treatment (soil treatment) was effected immediately after sowing and before germination of the seeds. Seeds lying on the surface came into contact with the active ingredients. Postemergence treatment (leaf treatment) took place at an average growth height of the plants (depending on the rate of growth) of from 6 to 10 cm. The substances were suspended, emulsified or dissolved in water as diluent and applied by means of fine nozzles. The vessels were kept in the greenhouse in a temperature range of 12° C. to 25° C., and were regularly sprinkler irrigated for the duration of the experiment. The observation period was 6 to 8 weeks.

The next test relates to Avena sativa. In words: Growth height of Gramineae (Example 11, Table B). The settings on record: 3.0 kg/ha, 0 = no inhibition, 100 = no growth; for inhibition at 3000 g/ha: Avena sativa, read-out: growth inhibition compared with untreated control.
Excerpt: as §3

The subject of another test is Hordeum vulgare. Description: Growth height of Gramineae (Example 11, Table B). The settings on record: 3.0 kg/ha, 0 = no inhibition, 100 = no growth; for inhibition at 3000 g/ha: Hordeum vulgare, read-out: growth inhibition compared with untreated control.
Excerpt: as §3

In a further test the test system is Poa annua. In words: Herbicidal action (Example 25). Particulars: Poa annua, pre-emergence, preemergence, 2.0 kg/ha; read-out: percentage damage. How it is done: as §1, §2
The test system of a further test is Setaria faberii. In words: Herbicidal action (Example 25). Particulars: preemergence. How it is done: as §1, §2
A further test deals with Sorghum halepense. In words: Herbicidal action (Example 25). The settings on record: preemergence. The method, then: as §1, §2
The test system of the next test is Sinapis alba. In words: Herbicidal action (Example 25). The settings on record: pre-emergence, preemergence, read-out: percentage damage; for pest or weed control at 2000 g/ha: 2.0 kg/ha. The method, then: as §1, §2
The subject of the next test is Cyperus esculentus. In words: Herbicidal action (Example 25). The settings on record: preemergence. The method, then: as §1, §2
The subject of the next test is Cynodon dactylon. Description: Herbicidal action (Example 25). The settings on record: preemergence. The method, then: as §1, §2
In the next test the test system is Ipomoea spp. In words: Herbicidal action (Example 25). The settings on record: preemergence. The method, then:
as §1, §2

Where [1] appears, read: post-emergence, postemergence, 4.0 kg/ha.
Setting [2] is: pre-emergence, preemergence, 4.0 kg/ha.

Where two headings read alike, the source gives them in different places.

For the molecule `c1csc(N2N=NC3C4CC(C5N=NC45)C32)n1` (stereo not shown) [drawing 430], the percentage damage with Digitaria sanguinalis (2.0 kg/ha) is given as 60 percentage damage; in the test with Digitaria sanguinalis (4.0 kg/ha) it was 60 percentage damage; with Digitaria sanguinalis (8.0 kg/ha), 80 percentage damage; in the test on Eleusine indica (2.0 kg/ha), 60 percentage damage; in the test with Eleusine indica (4.0 kg/ha), 60 percentage damage; in the test on Eleusine indica (8.0 kg/ha), 70 percentage damage. In addition, the percentage damage with Datura stramonium (2.0 kg/ha) was determined as 50 percentage damage; with Datura stramonium (4.0 kg/ha), 60 percentage damage; with Datura stramonium (8.0 kg/ha) it was 65 percentage damage. In addition, the pest or weed control at 2000 g/ha in the test on Alopecurus myosuroides (post-emergence, postemergence) was found to be 32%; in the test on Alopecurus myosuroides (pre-emergence, preemergence), 70%. In addition, the values for the pest or weed control at 4000 g/ha in the test on Alopecurus myosuroides (setting [1]) and with Alopecurus myosuroides (setting [2]) were 40% and 88%, respectively. Also, the pest or weed control at 8000 g/ha amounted to 50% with Alopecurus myosuroides (post-emergence, postemergence) and 100% in the test on Alopecurus myosuroides (pre-emergence, preemergence).
As to `Clc1ccc(N2N=NC3C4CC(C5N=NC45)C32)cc1Cl` (stereo not shown), the “growth inhibition compared with untreated control” value in the test with Lolium multifl. (leaf treatment) is 25%; in the test with Lolium multifl. (soil treatment), 30%; in the test on Avena sativa (leaf treatment) it was 40%; in the test with Avena sativa (soil treatment) it was 30%; in the test with Hordeum vulgare (leaf treatment) it was 30%; in the test with Hordeum vulgare (soil treatment), 40%.
The inhibition is the drop in the measured response relative to a control, in per cent. For the molecule `Brc1ccc(N2N=NC3C4CC(C5NNC45)C32)cc1` (stereo not shown), the inhibition at 3000 g/ha with Lolium multifl. (leaf treatment) is 50%; in the test with Lolium multifl. (soil treatment), 50%; in the test on Avena sativa (leaf treatment) it was 60%; with Avena sativa (soil treatment), 60%; in the test on Hordeum vulgare (leaf treatment) it was 50%; in the test with Hordeum vulgare (soil treatment) it was 60%.
In the case of `O=S(=O)(c1ccccc1)N1C2C3CC(C4N=NC34)C21` (stereo not shown) [drawing 419], the pest or weed control at 2000 g/ha in the test on Poa annua amounted to 70%; with Sinapis alba, 90%. Further, the percentage damage in the test with Setaria faberii (2.0 kg/ha) was 40 percentage damage; with Setaria faberii (4.0 kg/ha), 100 percentage damage; with Sorghum halepense (2.0 kg/ha), 53 percentage damage; in the test on Sorghum halepense (4.0 kg/ha), 50 percentage damage.
For the molecule `c1ccc(CN2N=NC3C4CC(C5N=NC45)C32)cc1` (stereo not shown) [drawing 417], the percentage damage is recorded as 80 percentage damage in the test with Setaria faberii (2.0 kg/ha), 90 percentage damage in the test on Setaria faberii (4.0 kg/ha), 90 percentage damage in the test on Sorghum halepense (2.0 kg/ha) and 90 percentage damage in the test with Sorghum halepense (4.0 kg/ha). Moreover, the pest or weed control at 2000 g/ha with Sinapis alba was 80%. In addition, the pest or weed control at 4000 g/ha with Sinapis alba (4.0 kg/ha) is 95%.
For the molecule `c1ccc(CN2N=NC3C4CC(C5N=NC45)C32)cc1` (stereo not shown) [drawing 412], the percentage damage in the test on Cyperus esculentus (2.0 kg/ha) was 55 percentage damage; with Cyperus esculentus (4.0 kg/ha), 55 percentage damage; in the test with Cynodon dactylon (2.0 kg/ha) it was 80 percentage damage; in the test with Cynodon dactylon (4.0 kg/ha), 100 percentage damage; in the test with Ipomoea spp. (2.0 kg/ha), 0 percentage damage; in the test with Ipomoea spp. (4.0 kg/ha), 10 percentage damage. Moreover, the pest or weed control at 2000 g/ha in the test on Alopecurus myosuroides (pre-emergence, preemergence) turned out to be 55%. Besides, the pest or weed control at 4000 g/ha in the test with Alopecurus myosuroides (setting [2]) came to 70%.
For `C[N+](C)(C)CCCl` [drawing 370], the inhibition at 3000 g/ha in the test with Lolium multifl. (leaf treatment) amounted to 20%; with Lolium multifl. (soil treatment), 5%; with Avena sativa (leaf treatment), 45%; in the test with Avena sativa (soil treatment) it was 25%; with Hordeum vulgare (leaf treatment), 10%; with Hordeum vulgare (soil treatment) it was 10%.
With `CC(C)OC(=O)Nc1cccc(Cl)c1` [drawing 423], the percentage damage in the test on Digitaria sanguinalis (2.0 kg/ha) worked out at 80 percentage damage; with Digitaria sanguinalis (4.0 kg/ha), 80 percentage damage; in the test on Digitaria sanguinalis (8.0 kg/ha), 90 percentage damage; with Eleusine indica (2.0 kg/ha), 50 percentage damage; with Eleusine indica (4.0 kg/ha), 50 percentage damage; in the test with Eleusine indica (8.0 kg/ha), 50 percentage damage. The figures for the percentage damage with Datura stramonium (2.0 kg/ha), in the test on Datura stramonium (4.0 kg/ha) and in the test on Datura stramonium (8.0 kg/ha) were 30 percentage damage, 40 percentage damage and 60 percentage damage, respectively. The pest or weed control at 2000 g/ha amounted to 25% with Alopecurus myosuroides (post-emergence, postemergence) and 95% in the test on Alopecurus myosuroides (pre-emergence, preemergence). Besides, the pest or weed control at 4000 g/ha in the test with Alopecurus myosuroides (setting [1]) came to 25%; with Alopecurus myosuroides (setting [2]) it was 95%. Also, the pest or weed control at 8000 g/ha in the test with Alopecurus myosuroides (post-emergence, postemergence) worked out at 30%; with Alopecurus myosuroides (pre-emergence, preemergence) it was 98%.
`c1ccc(-n2nccc2N2N=NC3C4CC(C5N=NC45)C32)cc1` (stereo not shown): the “growth inhibition compared with untreated control” value with Lolium multifl. (leaf treatment) was 0%; in the test on Avena sativa (leaf treatment), 20%; in the test on Avena sativa (soil treatment), 60%; in the test on Hordeum vulgare (leaf treatment), 20%; in the test with Hordeum vulgare (soil treatment), 35%.
On to `c1ccc(N2N=NC3C4CC(C5N=NC45)C32)cc1` (stereo not shown) [drawing 429], for which the percentage damage was determined as 60 percentage damage with Digitaria sanguinalis (2.0 kg/ha); 70 percentage damage in the test on Digitaria sanguinalis (4.0 kg/ha); 80 percentage damage with Digitaria sanguinalis (8.0 kg/ha); 90 percentage damage in the test with Eleusine indica (2.0 kg/ha); 90 percentage damage with Eleusine indica (4.0 kg/ha); 90 percentage damage in the test on Eleusine indica (8.0 kg/ha). Besides, the percentage damage with Alopecurus myosuroides (preemergence, 4.0 kg/ha) came to 75 percentage damage; in the test on Datura stramonium (2.0 kg/ha), 60 percentage damage; in the test on Datura stramonium (4.0 kg/ha), 95 percentage damage; with Datura stramonium (8.0 kg/ha) it was 100 percentage damage. Further, the pest or weed control at 2000 g/ha stood at 15% in the test with Alopecurus myosuroides (post-emergence, postemergence) and 70% in the test on Alopecurus myosuroides (pre-emergence, preemergence). In addition, the pest or weed control at 4000 g/ha in the test on Alopecurus myosuroides (setting [1]) was determined as 38%. For the same molecule, the pest or weed control at 8000 g/ha was found to be 45% with Alopecurus myosuroides (post-emergence, postemergence) and 90% in the test with Alopecurus myosuroides (pre-emergence, preemergence).
Take `Brc1ccc(N2C3C4CC(C5N=NC45)C32)cc1` (stereo not shown): the inhibition at 3000 g/ha is 50% with Lolium multifl. (leaf treatment); 50% with Lolium multifl. (soil treatment); 50% in the test on Avena sativa (leaf treatment); 40% in the test on Avena sativa (soil treatment); 50% in the test on Hordeum vulgare (leaf treatment); 60% in the test with Hordeum vulgare (soil treatment).
For `CN(C)C(=O)Nc1ccc(Oc2ccccc2)cc1` [drawing 424], the percentage damage with Digitaria sanguinalis (2.0 kg/ha) came out at 50 percentage damage; with Digitaria sanguinalis (4.0 kg/ha) it was 70 percentage damage; with Digitaria sanguinalis (8.0 kg/ha), 90 percentage damage; in the test on Eleusine indica (2.0 kg/ha) it was 40 percentage damage; in the test on Eleusine indica (4.0 kg/ha) it was 50 percentage damage; in the test on Eleusine indica (8.0 kg/ha), 50 percentage damage. The percentage damage in the test with Datura stramonium (2.0 kg/ha) was found to be 95 percentage damage; in the test on Datura stramonium (4.0 kg/ha), 95 percentage damage; in the test with Datura stramonium (8.0 kg/ha), 100 percentage damage. In addition, the pest or weed control at 2000 g/ha came out at 15% in the test with Alopecurus myosuroides (post-emergence, postemergence) and 30% in the test with Alopecurus myosuroides (pre-emergence, preemergence). For the same molecule, the pest or weed control at 4000 g/ha in the test with Alopecurus myosuroides (setting [1]) was determined as 22%; with Alopecurus myosuroides (setting [2]) it was 25%. In addition, the pest or weed control at 8000 g/ha amounted to 38% in the test on Alopecurus myosuroides (post-emergence, postemergence) and 25% in the test on Alopecurus myosuroides (pre-emergence, preemergence).

The values are drawn from patent publication US4257941A, “Polycyclic nitrogen-containing compounds” (BASF Aktiengesellschaft, priority 1976, dated 1981).
